Reference: patent US11753445B2, “Therapeutic peptides” (COHBAR, INC., priority 2016, dated 2023)

What was measured:
3T3-L1 Adipocytes [1] = assay: Free fatty acid levels in cultured mouse 3T3-L1 adipocytes, forskolin stimulated (Example 3); assay type: cell-based; conditions: forskolin 1 μM; for Free Fatty Acid Levels in 3T3-L1 Adipocytes Expressed as a Percent of Forskolin Control: Percent of Control Value: test peptides 25 μM
Procedure, shortened: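 Mouse 3T3-L1 cells differentiated 12–17 days, then exposed to test peptides (25 μM) for 18–20 h, fresh peptide 1 h, then 3 h with 1 μM forskolin. Free fatty acids in medium read colorimetrically at 540 nm. Values background-corrected and expressed relative to forskolin-only cells.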

[2] = test system: Diet Induced Obese (DIO) mice; assay: Body weight, blood glucose and fat mass in Diet Induced Obese mice, 10 days (Example 6); assay type: in vivo, Male C57BL/6 mice; conditions: male DIO mice; 10 days twice daily intraperitoneal 15 mg/kg; N = 8; mean
Procedure, shortened: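 Male DIO mice (n=8/group), randomized by blood glucose and body weight, dosed 15 mg/kg/dose once or twice daily s.c. or i.p. for 10 days vs vehicle. Body weight, blood glucose and food intake monitored; fat vs lean mass by quantitative whole-body NMR before and after dosing.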

[3] = Stability in monkey plasma (Example 16); assay type: in vitro ADME; conditions: Monkey plasma 37° C., peptide 10 uM; for remaining at 1 h, 10 uM: 60 min, read-out: % Remaining at Each Time Point: 60 min; for remaining at 2 h, 10 uM: 120 min, read-out: % Remaining at Each Time Point: 120 min; for remaining at 3 h, 10 uM: 180 min, read-out: % Remaining at Each Time Point: 180 min
[4] = Stability in human plasma (Example 16); assay type: in vitro ADME; conditions: Human plasma 37° C., peptide 10 uM; for remaining at 1 h, 10 uM / remaining at 2 h, 10 uM / remaining at 3 h, 10 uM: pooled human plasma; for remaining at 1 h, 10 uM: 60 min, read-out: % Remaining at Each Time Point: 60 min; for remaining at 2 h, 10 uM: 120 min, read-out: % Remaining at Each Time Point: 120 min; for remaining at 3 h, 10 uM: 180 min, read-out: % Remaining at Each Time Point: 180 min
Method: (§1) Peptides (10 uM) were incubated in pooled mouse or human plasma at 37° C. and samples were removed and immediately analyzed for the concentration of intact peptide by LC/MS/MS over the course of 3 hours. The percent of peptide remaining in plasma at each time point was calculated relative to the initial peak area (Table 14).

[5] = Stability in mouse plasma, peptides 10 uM (Example 15); assay type: in vitro ADME; conditions: mouse plasma 37° C., peptide 10 uM; for remaining at 0.25 h, 10 uM / remaining at 0.5 h, 10 uM / remaining at 1 h, 10 uM / remaining at 2 h, 10 uM / remaining at 3 h, 10 uM: pooled mouse plasma; for remaining at 0.25 h, 10 uM: 15 min, read-out: % Remaining at Each Time Point: 15 min; for remaining at 0.5 h, 10 uM: 30 min, read-out: % Remaining at Each Time Point: 30 min; for remaining at 1 h, 10 uM: 60 min, read-out: % Remaining at Each Time Point: 60 min; for remaining at 2 h, 10 uM: 120 min, read-out: % Remaining at Each Time Point: 120 min; for remaining at 3 h, 10 uM: 180 min, read-out: % Remaining at Each Time Point: 180 min
Method: as §1, with “mouse” for “mouse or human”, “13).” for “14).”

3T3-L1 Adipocytes [6] = assay: Free fatty acid levels in cultured mouse 3T3-L1 adipocytes, isoproterenol stimulated (Example 17); assay type: cell-based; conditions: insulin 100 nM; 3T3-L1 adipocytes; isoproterenol 1 nM
Procedure, shortened: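 Differentiated 3T3-L1 adipocytes (12-17 days) given test peptides at 25-50 μM for 18-20 h, then 3 h with peptides plus 1 nM isoproterenol at 37 °C. Medium free fatty acids read colorimetrically at 540 nm, background-corrected and expressed relative to isoproterenol-only cells.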

Row | Substance | % Remaining at Each Time Point: 0 min [3] [%] | remaining at 1 h, 10 uM [3] [%] | remaining at 2 h, 10 uM [3] [%] | remaining at 3 h, 10 uM [3] [%] | % Remaining at Each Time Point: 0 min [4] [%] | remaining at 1 h, 10 uM [4] [%] | remaining at 2 h, 10 uM [4] [%] | remaining at 3 h, 10 uM [4] [%] | % Remaining at Each Time Point: 0 min [5] [%] | remaining at 0.25 h, 10 uM [5] [%] | remaining at 0.5 h, 10 uM [5] [%] | remaining at 1 h, 10 uM [5] [%] | remaining at 2 h, 10 uM [5] [%] | remaining at 3 h, 10 uM [5] [%] | Free Fatty Acid Levels in 3T3-L1 Adipocytes Expressed as a Percent of Forskolin Control: Percent of Control Value (3T3-L1 Adipocytes [1]) [%] | Difference from Vehicle Control: Decrease from Baseline in Blood Glucose [2] [mg/dL] | Difference from Vehicle Control: Decrease from Baseline in Body Weight (%) [2] [%] | Difference from Vehicle Control: Decrease from Baseline in Fat Mass [2] [g] | Free fatty acid levels, % of the isoproterenol control value (3T3-L1 Adipocytes [6]) [%] | Free fatty acid levels, % of the forskolin control value (3T3-L1 Adipocytes [1]; insulin 100 nM, 3T3-L1 adipocytes) [%]
1 | H-MRWQEMGYIFYPRKLA-OH [compound 21] | – | – | – | – | – | – | – | – | – | – | – | – | – | – | 56.0 | -4.21 | −3.00 | -2.03 | – | –
2 | H-MRWQEMGYIFYPRNLR-OH [compound 213] | – | – | – | – | – | – | – | – | – | – | – | – | – | – | 36.0 | -20.1 | −4.21 | -1.16 | – | –
3 | H-MRWQEMQYIFYPRALR-OH [compound 219] | – | – | – | – | – | – | – | – | – | – | – | – | – | – | 41.5 | -17.3 | −4.09 | -1.37 | – | –
4 | Insulin [reference compound] | – | – | – | – | – | – | – | – | – | – | – | – | – | – | – | – | – | – | < 5 | < 9

More lines, main results first:

Row | % Remaining at Each Time Point: 0 min [3] [%] | remaining at 1 h, 10 uM [3] [%] | remaining at 2 h, 10 uM [3] [%] | remaining at 3 h, 10 uM [3] [%] | % Remaining at Each Time Point: 0 min [4] [%] | remaining at 1 h, 10 uM [4] [%] | remaining at 2 h, 10 uM [4] [%] | remaining at 3 h, 10 uM [4] [%] | % Remaining at Each Time Point: 0 min [5] [%] | remaining at 0.25 h, 10 uM [5] [%] | remaining at 0.5 h, 10 uM [5] [%] | remaining at 1 h, 10 uM [5] [%] | remaining at 2 h, 10 uM [5] [%] | remaining at 3 h, 10 uM [5] [%] | Substance | Free Fatty Acid Levels in 3T3-L1 Adipocytes Expressed as a Percent of Forskolin Control: Percent of Control Value (3T3-L1 Adipocytes [1]) [%] | Difference from Vehicle Control: Decrease from Baseline in Blood Glucose [2] [mg/dL] | Difference from Vehicle Control: Decrease from Baseline in Body Weight (%) [2] [%] | Difference from Vehicle Control: Decrease from Baseline in Fat Mass [2] [g] | Free fatty acid levels, % of the isoproterenol control value (3T3-L1 Adipocytes [6]) [%] | Free fatty acid levels, % of the forskolin control value (3T3-L1 Adipocytes [1]; insulin 100 nM, 3T3-L1 adipocytes) [%]
5 | 100 | 72.8 | 39.8 | 23.4 | 100 | 56.3 | 44.7 | 38.4 | 100 | 78.3 | 38.9 | 9.6 | 0.8 | 0.4 | H-MRWQEMGYIFYPRKLR-OH [compound 2] | 59.2 | -4.88 | −0.58 | -0.24 | – | –
6 | 100 | 106 | 89 | 68 | 100 | 105 | 86.6 | 85.4 | 100 | 77 | 51.8 | 21 | 3.94 | 1.09 | H-MRWQEMNYIFYPR-OH [compound 208] | 62.4 | -11.5 | −5.05 | -1.87 | – | –
7 | 100 | 105 | 87.9 | 77.9 | 100 | 106 | 90.8 | 95.8 | 100 | 85.7 | 79.5 | 61.9 | 35.4 | 23 | H-RWQEMNYIFYPR-OH [compound 210] | 29.2 | 8.25 | −3.70 | -1.45 | – | –
8 | – | – | – | – | – | – | – | – | 100 | 85.2 | 72.8 | 52.3 | 30.3 | 17.9 | H-RWQEMQYIFYPR-OH [compound 211] | 33.7 | -2.25 | −1.04 | -0.43 | – | –
